Common to all, as to format: functional, Mesocricetus auratus
Assay [1] concerns Syrian golden hamster. Briefly: Antihyperlipidemic activity against high fat diet fed gloden syrian hamster assessed as change in triglyceride level at 10 mg/kg, po for 7 days.
The subject of assay [2] is Syrian golden hamster. Briefly: Antihyperlipidemic activity against high fat diet fed gloden syrian hamster assessed as change in total cholesterol level at 10 mg/kg, po for 7 days.
The test system of assay [3] is Syrian golden hamster. Briefly: Antihyperlipidemic activity against high fat diet fed gloden syrian hamster assessed as change in HDL level at 10 mg/kg, po for 7 days.
Assay [4] has as its system Syrian golden hamster. Briefly: Antihyperlipidemic activity against high fat diet fed gloden syrian hamster assessed as change in HDL to total cholesterol ratio at 10 mg/kg, po for 7 days.
For assay [5], the system named is Syrian golden hamster. Briefly: Antihyperlipidemic activity against high fat diet fed gloden syrian hamster assessed as change in triglyceride level at 25 mg/kg, po for 7 days.
The test system of assay [6] is Syrian golden hamster. Briefly: Antihyperlipidemic activity against high fat diet fed gloden syrian hamster assessed as change in total cholesterol level at 25 mg/kg, po for 7 days.
Assay [7] deals with Syrian golden hamster. Briefly: Antihyperlipidemic activity against high fat diet fed gloden syrian hamster assessed as change in HDL level at 25 mg/kg, po for 7 days.
Assay [8] concerns Syrian golden hamster. Briefly: Antihyperlipidemic activity against high fat diet fed gloden syrian hamster assessed as change in HDL to total cholesterol ratio at 25 mg/kg, po for 7 days.

For `COC(=O)c1cc2cc(C(c3c(C)n(C)c4ccccc34)c3c(C)n(C)c4ccccc34)c3ccccc3c2oc1=O`, the Activity in the assay with Syrian golden hamster [1] is given as -29%; with Syrian golden hamster [2], -4%; in the assay on Syrian golden hamster [3], -3%; with Syrian golden hamster [4], 2%.

`CCOC(=O)c1cc2cc(C(c3cn(C)c4ccccc34)c3cn(C)c4ccccc34)c3ccccc3c2oc1=O`: the Activity with Syrian golden hamster [1] is on record as -33%; in the assay with Syrian golden hamster [2], 3%; in the assay on Syrian golden hamster [3], 22%; with Syrian golden hamster [4], 18%.

Turning to `CCOC(=O)c1cc2cc(C(c3c(C)[nH]c4ccccc34)c3c(C)[nH]c4ccccc34)c3ccccc3c2oc1=O`, the Activity in the assay on Syrian golden hamster [1] is given as -35%; with Syrian golden hamster [2], -7%; with Syrian golden hamster [3], 14%; in the assay on Syrian golden hamster [4], 24%.

Consider `CCOC(=O)c1cc2cc(C(c3c(C)n(C)c4ccccc34)c3c(C)n(C)c4ccccc34)c3ccccc3c2oc1=O`, for which the Activity in the assay with Syrian golden hamster [1] is reported as -45%; in the assay with Syrian golden hamster [2], -38%; in the assay with Syrian golden hamster [3], -31%; with Syrian golden hamster [4], 11%.

As for `CCOC(=O)c1cc2cc(C(c3c(C)n(C)c4ccccc34)c3c(C)n(C)c4ccccc34)cc(C(C)CC)c2oc1=O` (stereo unspecified), the Activity in the assay on Syrian golden hamster [1] was -57%; in the assay with Syrian golden hamster [2], -43%; with Syrian golden hamster [3], -20%; in the assay on Syrian golden hamster [4] it was 39%.

Consider `COC(=O)c1cc2cc(C(c3c[nH]c4ccccc34)c3c[nH]c4ccccc34)c3ccccc3c2oc1=O`, for which the Activity is listed as -50% with Syrian golden hamster [1], -12% in the assay on Syrian golden hamster [2], 13% with Syrian golden hamster [3] and 30% with Syrian golden hamster [4].

Turning to `COC(=O)c1cc2cc(C(c3cn(C)c4ccccc34)c3cn(C)c4ccccc34)c3ccccc3c2oc1=O`, the Activity in the assay with Syrian golden hamster [1] is -35%; with Syrian golden hamster [2] it was 6%; with Syrian golden hamster [3] it was -17%; in the assay with Syrian golden hamster [4] it was 12%.

For `COC(=O)c1cc2cc(C(c3c(C)[nH]c4ccccc34)c3c(C)[nH]c4ccccc34)c3ccccc3c2oc1=O`, the Activity was -33% in the assay on Syrian golden hamster [1], -17% in the assay on Syrian golden hamster [2], 1% in the assay on Syrian golden hamster [3] and 24% with Syrian golden hamster [4].

On to `CCOC(=O)c1cc2cc(C(c3c[nH]c4ccccc34)c3c[nH]c4ccccc34)c3ccccc3c2oc1=O`, for which the Activity in the assay with Syrian golden hamster [1] was -55%; with Syrian golden hamster [2], -20%; in the assay on Syrian golden hamster [3] it was 14%; with Syrian golden hamster [4], 42%.

Regarding `CCOC(=O)c1cc2cc(C(c3c[nH]c4ccccc34)c3c[nH]c4ccccc34)cc(C(C)CC)c2oc1=O` (stereo unspecified), the Activity is on record as -10% with Syrian golden hamster [1], 28% with Syrian golden hamster [2], 11% in the assay on Syrian golden hamster [3] and -14% with Syrian golden hamster [4].

Regarding `CCOC(=O)c1cc2cc(C(c3cn(C)c4ccccc34)c3cn(C)c4ccccc34)cc(C(C)CC)c2oc1=O` (stereo unspecified), the Activity is -43% with Syrian golden hamster [1], -36% in the assay on Syrian golden hamster [2], -24% in the assay with Syrian golden hamster [3] and 18% with Syrian golden hamster [4].

Take `CCOC(=O)c1cc2cc(C(c3c(C)[nH]c4ccccc34)c3c(C)[nH]c4ccccc34)cc(C(C)CC)c2oc1=O` (stereo unspecified): the Activity is -39% in the assay on Syrian golden hamster [1], -21% in the assay with Syrian golden hamster [2], -13% with Syrian golden hamster [3] and 9% in the assay with Syrian golden hamster [4].

On to `CC(C)c1c(C(=O)Nc2ccccc2)c(-c2ccccc2)c(-c2ccc(F)cc2)n1CC[C@@H](O)C[C@@H](O)CC(=O)O` [ATORVASTATIN], for which the Activity in the assay with Syrian golden hamster [1] is -63%; in the assay with Syrian golden hamster [2], -14%; in the assay on Syrian golden hamster [3], 15%; in the assay on Syrian golden hamster [4], 35%.

As for `CC[C@H](C)C(=O)O[C@H]1C[C@@H](C)C=C2C=C[C@H](C)[C@H](CC[C@@H]3C[C@@H](O)CC(=O)O3)[C@H]21` [LOVASTATIN], the Activity in the assay with Syrian golden hamster [5] is recorded as -29%; in the assay with Syrian golden hamster [6], -9%; in the assay on Syrian golden hamster [7], 3%; in the assay with Syrian golden hamster [8], 12%.

For the origin of these results see ChEMBL document CHEMBL1268958, “Synthesis and antihyperlipidemic activity of novel coumarin bisindole derivatives” (2010).
